Each structure is given as a SMILES string. “And” between values parts separate entries of the source, which are not always exact repeats. Identical values can stand only once. Records with an inconclusive call do not appear. The source made the active and inactive calls.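 How the source made its calls: active means fitted half-maximal concentration of signal decrease at or below twice the sample's top tested concentration; inconclusive means flat curve between -70 and -30 percent, or poor fit; inactive means flat within 30 percent, signal rise, or potency above limit.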 Some results are limits rather than exact numbers.

In the experiment the target is T. gondii ME49Luc in IFN-y HeLa, luciferase, 72 h. The experiment can be described thus: inhibitors of Toxoplasma growth in IFN-γ-primed HeLa – cell-based, ME49Luc, luciferase, 72 h, dose response (AID 1259418).
As usually defined, the AC50 is the concentration at which the activity in the assay is half-maximal. Turning to `Cc1ccc(Cn2c(=O)c3nn(C)cc3n3c(=O)n(Cc4nc(-c5ccccc5)oc4C)nc23)cc1`, the AC50 is 13.1 µM. As for `Cc1ccccc1-c1ccc(C2[C@@H]3CN(Cc4cncnc4)C[C@H]2N3)cc1` (some centres not stated), the AC50 was 19 µM. `COc1ccc(-c2nc(NCCCN3CCC(N4CCCCC4)CC3)c3ccccc3n2)cc1`: the AC50 is 31.3 µM.

Consider `CN1c2ccc(-c3ccccc3)cc2[C@H]2[C@H](CCN2C(=O)CC2CC2)[C@@H]1CO`, for which the AC50 is 18.8 µM. In the case of `Cn1c2ccccc2c2c1cc(C(=O)N1CCN(c3ccncc3)CC1)n2S(C)(=O)=O`, the AC50 is 26.6 µM.

As to `Cc1ccc(C)c(S(=O)(=O)N2CCC3(CC2)c2ncc(-c4cccc(F)c4)n2CCN3C)c1`, the AC50 is 20.9 µM.

With `Cc1nnsc1CN(C)Cc1[nH]c2ccc(F)cc2c1C`, the AC50 is > 39 µM (inactive).

Take `CC(C)C#Cc1ccc([C@H]2[C@@H](CO)N3C(=O)CN(S(=O)(=O)c4ccccc4)C[C@H]23)cc1`: the AC50 is 13.6 µM. With `COc1ccc(-c2nc3c(s2)CN(S(=O)(=O)c2cc(C)cc(C)c2)CC3)cc1`, the AC50 is 3.89 µM and 11.8 µM. On to `O=C(Cc1cccnc1)N1CC(=O)N2[C@H](CO)[C@@H](c3ccc(/C=C/c4ccccc4)cc3)[C@@H]2C1`, for which the AC50 is 19.3 µM. To `Cc1ccccc1Cn1c(CN2CCC(C(=O)NCCCN3CCCC3)CC2)cc2ccccc21` belongs 18.2 µM; to `CCN(c1ccccc1C)S(=O)(=O)c1cc2c3c(c1)CCC(=O)N3CCC2`, 13 µM.

For the molecule `Cc1ccc(-c2noc(-c3ccc(N4CCC(N5CCCCC5)CC4)nc3)n2)cc1`, the AC50 was 24.8 µM.

For the molecule `Cc1cc(C)c(S(=O)(=O)N2CCC3(CC2)NCCN=C3NCc2ccc3c(c2)OCO3)cc1C`, the AC50 is 9.23 µM. To `COc1ccc(-c2nc(N3CCC4(CC3)OCCO4)c3ccccc3n2)cc1` belongs 20.1 µM; to `Cc1ccc(-c2nc(CN3CCN(C(=O)NCCc4ccccc4)CC3)c(C)o2)cc1`, > 39 µM (inactive); to `CN(C[C@H]1N[C@@H](CO)[C@@H]1c1ccc(C2=CCCC2)cc1)C(=O)c1cccc(F)c1`, 15.2 µM and 3.49 µM. Regarding `CCOc1ccc(NC(=O)CN2CCC3(CC2)N=C(c2ccc(Cl)cc2)C(=O)N3)cc1`, the AC50 was > 39 µM (inactive). Then `COc1cccc(N(Cc2nc(-c3ccccc3)oc2C)S(=O)(=O)c2ccccc2C)c1`, with 5.46 µM; and `COc1cccc(NC(=O)N2CC(=O)N3[C@@H](CO)[C@H](c4ccc(C#CCC5CCCC5)cc4)[C@@H]3C2)c1`, with 20 µM. Turning to `CCOc1ccc(N(Cc2nc(-c3ccc(C)cc3)oc2C)S(=O)(=O)c2cccs2)cc1`, the AC50 is 5.31 µM. Then `Cc1ccccc1N(Cc1nc(-c2ccccc2)oc1C)S(=O)(=O)c1cccs1`, with > 39 µM (inactive). Then `O=C(Nc1ccc(F)cc1)N1C[C@@H]2N[C@H](C1)C2c1ccc(/C=C/c2ccccc2)cc1` (some centres not stated), with 10.3 µM and 2.14 µM. To `COc1ccc(N(Cc2nc(-c3ccccc3OC)oc2C)S(=O)(=O)c2cccs2)cc1` belongs 3.72 µM; to `CCc1nc(OCC(=O)N(C)c2ccccc2)c2ccccc2n1`, 24.4 µM. `CN(C)C(=O)c1ccc(-c2ccc3c(c2)[C@@H]2[C@@H](CCN2C(=O)C2CCCC2)[C@H](CO)N3C)cc1`: the AC50 was 20.6 µM. Then `Cc1ccc(CNC2=NCCNC23CCN(S(=O)(=O)c2cc(C)c(C)cc2C)CC3)cc1`, with 4.79 µM. To `Cc1nc(-c2cc(S(=O)(=O)NCCCN3CCCC(C)C3)c(C)s2)sc1C` (configuration not stated) belongs 33.7 µM; to `Cc1ccc(-c2nc(Cn3nnc(-c4nc(-c5ccccc5)no4)c3C)c(C)o2)cc1`, > 20 µM (inactive). Take `CN(C)C1CCN(Cc2cccc(C#N)c2)C(C(=O)O)C1` (configuration not stated): the AC50 is 9.32 µM.

For `CCc1cnc(N2[C@H](C#N)[C@@H](c3ccc(C#Cc4ccccc4F)cc3)[C@H]2CO)s1`, the AC50 is 20.5 µM and 6.21 µM. To `Cc1ccc(-c2cc(O)c3c(c2)CN(C(=O)CCN2CCCO2)CCO3)s1` belongs 13.5 µM; to `COc1cccc(S(=O)(=O)N2CCCCN3[C@H](C2)[C@H](c2ccc(C#CCC(C)C)cc2)[C@@H]3CO)c1`, 9.96 µM and 8.54 µM; to `COc1ccc(-c2nc(NC3CCCC3)c3ccccc3n2)cc1`, 35.8 µM. Then `O=C(c1cnccn1)N1CC(=O)N2[C@H](CO)[C@H](c3ccc(-c4cccc(F)c4)cc3)[C@H]2C1`, with 13.9 µM and 25 µM. To `COc1cccc(-c2nc3c(s2)CN(S(=O)(=O)c2cc(C)ccc2C)CC3)c1` belongs 6.71 µM and 7.85 µM; to `COc1ccc(S(=O)(=O)N2CCCCN3[C@H](CO)[C@@H](c4ccc(C#CCC(C)C)cc4)[C@H]3C2)cc1`, 4.13 µM and 4.65 µM; to `C1=CC[C@H]2CN(c3ncnc4[nH]ccc34)C[C@H]2C1`, 13.1 µM. As to `O=c1c(O)c(-c2ccc(O)c(O)c2)oc2cc(O)cc(O)c12`, the AC50 was 17.6 µM. Then `Cc1oc(-c2ccccc2)nc1CSc1nc2c(c(=O)[nH]1)CN(Cc1ccccc1)CC2`, with 15.4 µM; and `O=S(=O)(c1ccc2c(c1)CCCC2)N1CCC2(CC1)NCCN=C2NCc1ccc2c(c1)OCO2`, with 11.1 µM; and `Cc1cccc(-c2nc(Cn3nnc(-c4nc(-c5cccs5)no4)c3C)c(C)o2)c1`, with > 39 µM (inactive). With `O=C(c1cccc(F)c1)N1CC(=O)N2[C@H](CO)[C@H](c3ccc(/C=C/c4ccccc4)cc3)[C@@H]2C1`, the AC50 is 19.6 µM. Then `CC(C)(C)c1ccc(S(=O)(=O)N2CCC[C@@H]2C(=O)NCCc2csc(-c3ccccc3)n2)cc1`, with 4.48 µM; and `CC(C)(C)OC(=O)Nc1cc(-c2cn[nH]c2C2CCCN(C(=O)OC(C)(C)C)C2)ccn1` (configuration not stated), with 10.1 µM. Turning to `N#Cc1ccc(-c2ccc([C@@H]3[C@@H]4CN(C(=O)Nc5ccc6c(c5)OCO6)C[C@H]3N4)cc2)cc1`, the AC50 was 17.9 µM.

For `O=C(Nc1ccc(-c2nc(-c3ccccc3)co2)cc1)c1cccc(Cl)c1`, the AC50 is 35.3 µM. To `O=S(=O)(c1cccs1)N1CCCCN2[C@H](CO)[C@@H](c3ccc(/C=C/c4ccccc4)cc3)[C@@H]2C1` belongs 22 µM; to `O=C(Cc1ccncc1)N1CCCCN2[C@H](CO)[C@H](c3ccc(C#Cc4ccccc4F)cc3)[C@H]2C1`, 20 µM; to `Cc1ccc(CNC2=NCCNC23CCN(S(=O)(=O)c2ccc(Cl)s2)CC3)cc1`, 5.08 µM.

As for `COc1ccccc1NS(=O)(=O)c1cc2c3c(c1)CCC(=O)N3CCC2`, the concentration at half-maximal activity (AC50) was 25.4 µM. To `CC(C)COC1CC2(CCN(C(=O)c3cccn3C)CC2)C1` belongs 14.6 µM.

On to `Cc1ccccc1CN1C[C@@H]2C[C@H](C(=O)Nc3ccccc3)[C@@H](C1)O2`, for which the AC50 was 10.5 µM. To `COc1ccccc1-c1nc(CN2CCc3c(sc4c3CCCC4)C2c2ccccc2)c(C)o1` (configuration not stated) belongs 7.72 µM; to `O=C(c1ccc(-n2nc(C(F)(F)F)c3c2CCCC3)cc1)N1CCN(C2CCCCC2)CC1`, 10.1 µM and > 39 µM (inactive); to `O=C(CC1N=C2c3ccccc3N=C(SCc3ccccc3Cl)N2C1=O)NCc1cccs1` (configuration not stated), 21.5 µM. Then `O=C(C[C@H]1CC[C@@H]2[C@H](COC[C@@H](O)CN2Cc2ccc(Oc3ccccc3)cc2)O1)N1CCN(c2ccccc2)CC1`, with 24 µM; and `Cc1ccc(-c2nc(Cn3c(=O)c4c(C)cc(C)nc4n(-c4ccccc4)c3=O)c(C)o2)cc1`, with 30.9 µM. Then `Nc1ncnc2c1ncn2[C@@H]1O[C@H](C[C@@H](N)CC[C@H](N)C(=O)O)[C@@H](O)[C@H]1O`, with 0.907 µM; and `Cc1cc(C)cc(S(=O)(=O)N2CCC[C@@H]2C(=O)NCCc2csc(-c3ccccc3)n2)c1`, with 13.5 µM. Take `Clc1ccc(-c2nc(NCc3ccc4c(c3)OCO4)c3ccccc3n2)cc1`: the AC50 was 11.3 µM. On to `COc1ccc(N(Cc2nc(-c3ccc(C)cc3)oc2C)S(=O)(=O)c2ccccc2)cc1`, for which the AC50 is 15.2 µM. To `COCC1(C(=O)N2CCc3c(nc(-c4ccccc4)[nH]c3=O)C2)CCC1` belongs 36.2 µM; to `Cc1cccc(C(=O)N2CCC(C(=O)NCCc3csc(C)n3)CC2)c1`, 26.4 µM. Then `COc1cccc(C#Cc2ccc([C@@H]3[C@H](C#N)N(C(=O)c4ccccn4)[C@H]3CO)cc2)c1`, with 20.7 µM.

In the case of `C[C@H](O[C@H]1OCCN(Cc2n[nH]c(=O)[nH]2)[C@H]1c1ccc(F)cc1)c1cc(C(F)(F)F)cc(C(F)(F)F)c1`, the AC50 was 15.4 µM. Then `COc1ccccc1-c1noc(-c2nnn(Cc3nc(-c4ccc(C)cc4)oc3C)c2C)n1`, with 15 µM; and `Cc1cccc(-c2ccc([C@@H]3[C@@H](CO)N4C(=O)CN(C(=O)c5ccc6c(c5)OCO6)C[C@H]34)cc2)c1`, with 18.8 µM; and `Cc1nc(CCNC(=O)C2CCN(C(=O)c3cccc(Cl)c3)CC2)cs1`, with 31.5 µM. Then `Cc1oc(-c2cccc(Cl)c2)nc1CN(c1ccccc1)S(=O)(=O)c1ccccc1`, with 6.63 µM. Then `CS(=O)(=O)N1CC(=O)N2[C@H](CO)[C@@H](c3ccc(C#Cc4ccc(F)cc4)cc3)[C@H]2C1`, with 39 µM. On to `NCCCCCCCCCCNS(=O)(=O)c1cccc2c(Cl)cccc12`, for which the concentration at half-maximal activity (AC50) was 21.2 µM. To `O=C(Cc1cccnc1)N1CC(=O)N2[C@H](C1)[C@@H](c1ccc(/C=C/c3ccccc3)cc1)[C@@H]2CO` belongs 19.8 µM. To `COc1ccccc1-c1nc(CN(c2ccccc2OC)S(=O)(=O)c2ccccc2C)c(C)o1` belongs 6.87 µM. With `N#C[C@H]1[C@@H](c2ccc(C3=CCCCC3)cc2)[C@@H](CO)N1C(=O)Nc1ccccc1F`, the AC50 was 23.2 µM. To `COc1ccc(-c2ccc3nc(CO)[nH]c3c2)cc1Cl` belongs 16.2 µM; to `O=C(C[C@@H]1CC[C@@H]2[C@H](COC[C@@H](O)CN2Cc2ccc(Oc3ccccc3)cc2)O1)N1CCN(c2ccccc2)CC1`, 20.7 µM. In the case of `COc1ccc(S(=O)(=O)N2CCCCN3[C@H](CO)[C@H](c4ccc(C#CCC(C)C)cc4)[C@H]3C2)cc1`, the concentration at half-maximal activity (AC50) was 5.52 µM. Then `Cc1cc(C)c(S(=O)(=O)N2CCC3(CC2)NCCN=C3NCc2ccccc2C)cc1C`, with 6.27 µM; and `COc1cccc(S(=O)(=O)N2CCCCN3[C@H](CO)[C@@H](c4ccc(C#CCC(C)C)cc4)[C@@H]3C2)c1`, with 5.58 µM and 10.4 µM and 10.5 µM. To `COCCn1c(=S)[nH]c2cc(C(=O)N3CCC(O)(c4cccc(C(F)(F)F)c4)CC3)ccc2c1=O` belongs 34.1 µM; to `CC(C)Cc1ccc(S(=O)(=O)N2CCC3(CC2)NCCN=C3NC2CCCC2)cc1`, 12.5 µM.

These data come from PubChem BioAssay AID1259418 (Broad Institute, 2018).
